Results as given in patent EP3381907A1, “SYMMETRICAL 2-AMINOPHENYL-BENZAZOLYL-5-ACETATE COMPOUNDS AND THEIR USE AS ANTI-HEPARANASE” (Leadiant Biosciences SA, priority 2017, dated 2018).

Legend:
[1] = test system: U87MG (human glioblastoma astrocytoma); test: SRB Cell Cytotoxicity Assay, U87MG; format: cell-based; conditions: U-87 MG, 72h treatment, read-out: Concentration (µM) of test compounds at which the cell growth is inhibited by 50 %. U87MG
Excerpt: (§1) SRB Cell Cytotoxicity Assay is an assay based upon the quantitative staining of cellular proteins by sulforhodamine B (SRB). This assay can be used for high-throughput drug screening (Vichai & Kirkitara, Nature Protocol. 2006, 1, 112). Sulforhodamine B is an anionic aminoxanthene dye that forms an electrostatic complex with the basic amino acid residues of proteins under moderately acid conditions, which provides a sensitive linear response.
(§2) To assess a putative antiproliferative activity of the selected compounds, HT1080 (human fibrosarcoma), U87MG (human glioblastoma astrocytoma) and U2OS (human osteosarcoma) cell lines were treated for 72h, in triplicate, with increasing concentrations of heparanase inhibitors. Inhibition of cell proliferation was then measured by the classical colorimetric SRB Cell Cytotoxicity assay. Absorbance was measured by spectrophotometer at a wavelength of 510 nm and cell proliferation was determined as percent with respect to control cells (cells treated with the vehicle alone). EC50 values were then determined by GraphPad Prism.

FGF-1 = test: Real-Time quantitative PCR of FGF-1 mRNA in HT1080 cells; format: cell-based, human; conditions: 24 h
Procedure: (§3) To evaluate the effect of heparanase inhibitors on the tumor transcription of genes encoding for proangiogenic factors, such as FGF1/2, VEGF, MMP-9, HSPE-1, the relative mRNA levels were analyzed by quantitative Real-Time Quantitative PCR. To perform the assay, HT1080 (human fibrosarcoma) cells were cultured in complete medium containing 10%FCS (fetal calf serum). Cells were plated in 24-well plates and treated at fixed concentration (i.e., highest non-toxic concentration) of test compounds. After 24 h, cells were detached, collected and total RNA extracted by RNeasy Mini Kit (QIAGEN). Following reverse transcription step, FGF1/2, VEGF, MMP-9, HSPE-1 mRNA levels, were quantified by qPCR using the advanced Universal SYBR Green Supermix (Bio Rad) and ABI PRISM 7900HT Thermal Cycler System (Perkin Elmer), according to the manufacturer's instructions. Appropriate no-RT and non-template controls were included in each 96-well PCR reaction, and dissociation analysis was performed at the end of each run to confirm the specificity of the reaction. Relative levels of RNA were calculated using the ddCt method. Standard curve and sample data were run in duplicate.
(§4) In the Table 5 a mean value is reported.

[2] = test system: U2OS (human osteosarcoma); test: SRB Cell Cytotoxicity Assay, U2OS; format: cell-based; conditions: 72h treatment, read-out: Concentration (µM) of test compounds at which the cell growth is inhibited by 50 %. U2OS
Excerpt: as §1, §2

VEGF = test: Real-Time quantitative PCR of VEGF mRNA in HT1080 cells; format: cell-based, human; conditions: 24 h
Procedure: as §3, §4

[3] = test system: U2OS (human osteosarcoma); test: Matrigel cell invasion assay, U2OS; format: cell-based; conditions: Homo sapiens, test compound at 2.5 µM, 24 h pre-treatment, 24 h invasion
Procedure: Heparanase inhibitors were then evaluated for their activity on the invasive potential of HT1080 (human fibrosarcoma), U87MG (human glioblastoma astrocytoma) and U2OS (human osteosarcoma) human cell lines, using the Matrigel cell invasion assay which allows to assess the cell invasion ability of malignant and normal cells.
Invasion assay was performed using BioCoat cell culture inserts (BioCoat 8.0µm PET Membrane 24 Well Permeable Supports, Corning). Filters were coated with 100 µl of 300 µg/ml Matrigel dissolved in coating buffer (0.01 M Tris pH 8.0, 0.7% NaCl) (Becton-Dickinson Sciences). DMEM (Dulbecco's Modified Eagle's Medium) containing 5% FBS was added to the lower chambers. Cells were pre-treated with heparanase inhibitors for 24 h, detached and added to the upper chambers in media containing the inhibitors. Cells were allowed to invade for 24 h at 37°C in a CO2 incubator and then unmigrated cells were removed from the upper chamber with a cotton swab. The invading cells were fixed, stained with 0.1% crystal violet for 10 min at room temperature, photographed and counted under inverted microscope.
Test compounds were analyzed at fixed concentration (2.5 µM) for several fields, in duplicates. Activity of test compounds was compared to the reference compound. Activity of most interesting compound was confirmed in a second cell invasion assay. Data were expressed as the percent invasion with respect to cell migration through uncoated insert membrane (see Table 3 below)
(§5) Table 3. […] In Invasion assay, data were expressed as the percent invasion (range) with respect to cell migration through uncoated insert membrane. In Adhesion assay, data were expressed as the percent of adhesion with respect to the control (100%). • Legend • ++: 50-90% • + : < 50% • - : Not Active

FGF-2 = test: Real-Time quantitative PCR of FGF-2 mRNA in HT1080 cells; format: cell-based, human; conditions: 24 h
Procedure: as §3, §4

[4] = test system: HT1080 (human fibrosarcoma); test: Cell adhesion assay on matrigel coated wells, HT1080; format: cell-based; conditions: HT1080, test compound at 2.5 µM; percent of adhesion with respect to the control (100%)
Procedure: Cell surface, non-integrin molecules such as heparan sulfate proteoglycans (HSPGs) may be involved in the regulation of early adhesive stages of cell-ECM interactions. A cell adhesion assay has been employed to determine if the newly designed heparanase inhibitors were able to interfere with adhesion properties of cancer cells.
HT1080 (human fibrosarcoma) and U87MG (human glioblastoma astrocytoma) cells were treated for 18-20 h with test compounds in complete medium supplemented with 10% FCS. Then cells were collected, washed in complete medium, and added to matrigel coated wells in triplicate, at previously identified optimal seeding density, and incubated at 37 °C in complete medium for times ranging from 15 minutes to 4h, according to the cell line. After incubation, the wells were washed three times with serum-free medium and the remaining firmly attached cells were stained with crystal-violet 0.1%. Optical density was measured at 560 nm by Victor 3 (Perkin-Elmer) plate analyzer. Each experiment was repeated three times.
as §5

MMP-9 = test: Real-Time quantitative PCR of MMP-9 mRNA in HT1080 cells; format: cell-based, human; conditions: 24 h
Procedure: as §3, §4

Row | Structure (SMILES) | EC50 [1] [µM] | Gene Expression (% mRNA vs. control) FGF-1 (FGF-1; 2.5 uM) | EC50 [2] [µM] | Gene Expression (% mRNA vs. control) VEGF (VEGF; 2.5 uM) | inhibition at 2.5 µM [3] [%] | Gene Expression (% mRNA vs. control) FGF-2 (FGF-2; 2.5 uM) | Adhesion Assay (%) HT1080 [4] [%] | Gene Expression (% mRNA vs. control) MMP-9 (MMP-9; 2.5 uM) | Gene Expression (% mRNA vs. control) FGF-1 (FGF-1; 10.0 uM) | Gene Expression (% mRNA vs. control) VEGF (VEGF; 10.0 uM) | Gene Expression (% mRNA vs. control) FGF-2 (FGF-2; 10.0 uM) | Gene Expression (% mRNA vs. control) MMP-9 (MMP-9; 10.0 uM)
1 | O=C(O)Cc1ccc2oc(-c3ccc(NC(=O)Nc4ccc(-c5nc6cc(CC(=O)O)ccc6o5)cc4F)c(F)c3)nc2c1 [Compound 20, 2,2'-(((Carbonylbis(azanediyl))bis(3-fluoro-4,1-phenylene))bis(benzo[d]oxazole-2,5-diyl))diacetic acid] | > 10 | ∼ 85% | > 10 | ∼ 72% | 50 to 90 | ∼ 88% | 83.25 | ∼ 70% | – | – | – | –
2 | O=C(O)CNC(=O)Cc1ccc2oc(-c3ccc(NC(=O)Nc4ccc(-c5nc6cc(CC(=O)NCC(=O)O)ccc6o5)cc4F)c(F)c3)nc2c1 [Compound 25, 2,2'-((2,2'-(((Carbonylbis(azanediyl))bis(3-fluoro-4,1-phenylene))bis(benzo[d]oxazole-2,5-diyl))bis(acetyl))bis(azanediyl))diacetic acid] | > 10 | – | > 10 | – | < 50 | – | 81.60 | – | ∼ 52% | ∼ 63% | ∼ 68% | ∼ 65%
